The conditions of this data set: 101.33 kPa, Liquid; for viscosity: Capillary tube (Ostwald / Ubbelohde) method; for speed of sound: Pulse-echo method; for mass density: Vibrating tube method.

Here are results for 2 molecules from the NIST ThermoML archive (doi:10.1021/je034076x).

Numbers after ± are expanded uncertainties.

Regarding `OCC(F)(F)F` [2,2,2-trifluoroethanol], the viscosity turned out to be 2.694 ± 0.02 mPa·s (283.15 K), 1.755 ± 0.013 mPa·s (298.15 K) and 1.208 ± 0.0095 mPa·s (313.15 K). Moreover, the speed of sound (283.15 K) is on record as 872.7 ± 0.5 m/s, the speed of sound (298.15 K) is reported as 833.2 ± 0.5 m/s and the speed of sound (313.15 K) worked out at 793.3 ± 0.5 m/s. The mass density worked out at 1408.1 ± 0.3 kg/m3 (283.15 K), 1382.56 ± 0.28 kg/m3 (298.15 K) and 1356.89 ± 0.27 kg/m3 (313.15 K).
Consider `C1CCOC1` [tetrahydrofuran], for which the viscosity is on record as 0.5438 ± 0.0055 mPa·s (283.15 K), 0.4645 ± 0.0048 mPa·s (298.15 K) and 0.3992 ± 0.0043 mPa·s (313.15 K). Besides, the speed of sound is reported as 1348.8 ± 1.2 m/s (283.15 K), 1279 ± 1.2 m/s (298.15 K) and 1204.8 ± 1.2 m/s (313.15 K). For the same molecule, the mass density runs as follows: (283.15 K) 898.62 ± 0.47 kg/m3; (298.15 K) 882.18 ± 0.46 kg/m3; (313.15 K) 865.95 ± 0.45 kg/m3.

What is called viscosity is the internal friction of a fluid under shear. As usually defined, the speed of sound is the propagation velocity of pressure waves in the medium. For orientation: mass density means the mass of a sample divided by its volume.
